Data from US20260097017A1, “TASIPIMIDINE AND CYP2D6 INHIBITOR COMBINATION TREATMENT” (ORION CORPORATION, priority 2022, published 2026).
Where two headings read alike, the source gives them in different places.

Experiments:
[1] = Physicochemical input parameters of the PBPK model; details: input parameter of the PBPK model
Text: (§1) A physiologically based pharmacokinetic (PBPK) model was used to simulate the plasma exposure of tasipimidine in fasted healthy 30 years old males of 70 kg with different CYP2D6 phenotypes. Simulations were produced with the commercial GastroPlus® 9.8.2 software.

[2] = First-in-man single-dose escalation study, plasma PK; format: in vivo; details: both sexes, human, po, mean
Procedure: The first-in-man study was a randomized, double-blind, placebo-controlled, single-dose escalation study with healthy female and male subjects aged 18-44 years. The subjects were allocated to cohorts of 8 subjects of which 6 received active treatment and 2 received placebo. Each subject received either 1 dose of tasipimidine oral solution or 1 dose of placebo oral solution during the study. The studied doses of tasipimidine were 10, 25, 50, 100, and 150 μg as oral solution.
(§2) The subjects were genotyped for CYP2D6 on screening. The translation of CYP2D6 genotype to CYP2D6 phenotype was done according to the national consensus published by the Dutch Pharmacogenetics Working Group from KNMP (https://www.knmp.nl/index.php/media/113). The subjects with CYP2D6 poor metabolizer genotype were excluded from the study. The translation of CYP2D6 genotype to activity score was done according to the CYP2D6 Allele Functionality Table of PharmGKB (https://www.pharmgkb.org/page/cyp2d6RefMaterials).
Frequent blood samples were taken through an intravenous cannula for the assessment of the concentration of tasipimidine and its metabolite 1 in plasma. The sampling times were before (0 h) and 15 min, 30 min, 45 min, 1, 1.5, 2, 3, 4, 5, 6, 8, 10, 12, 16, and 24 hours after the study treatment administration. The PK parameters were calculated from the plasma concentration-time data by noncompartmental method using the commercial Phoenix WinNonlin software version 8.3.

CYP2C19 = biological target: T1, CYP2C19 (Homo sapiens, UniProt P33261); assay: Recombinant human CYP incubations (enzyme identification); format: in vitro ADME
T1 construct: purchased; host or cells: baculovirus-transfected insect cells
Procedure: (§3) The objective of these studies was to identify enzymes involved in the metabolism of tasipimidine in human. The test substance tasipimidine and the reference compounds for main tasipimidine metabolites 1-(4,5-dihydro-1H-imidazol-2-yl) isochroman-5-ol (metabolite 1), 2-(5-methoxyisochroman-1-yl)-1H-imidazole (metabolite 2), and 1-(1H-imidazol-2-yl) isochroman-5-ol (metabolite 3) were supplied by Orion Pharma. To further support the findings of recombinant enzyme incubations tasipimidine was incubated with human hepatocytes with two enzyme inhibitors, i.e. 1-aminobenzotriazole (ABT, non-selective CYP inhibitor), and quinidine (CYP2D6 inhibitor).
The analysis for disappearance of tasipimidine and the identification of the formed metabolites were carried out by using a high-resolution liquid chromatographic-mass spectrometer supported by accurate masses (UPLC-HRMS). Firstly, metabolic stability of tasipimidine in different in vitro matrices was determined by monitoring the disappearance of the parent compound as a function of time. Moreover, structures of the formed metabolites were characterized from their respective product ion spectra. The synthetized reference compounds of the metabolites were used to confirm the identification of those specific metabolites.

CYP2D6 [3] = biological target: T2, CYP2D6 (Homo sapiens, UniProt P10635); assay: Incubation with rhCYP2D6 Supersomes: intrinsic clearance and enzyme kinetics; format: in vitro ADME; set-up: purchased; host or cells: baculovirus-transfected insect cells
Procedure: as §3
Moreover, enzyme kinetics of tasipimidine metabolism was studied in rhCYP2D6.
Enzyme kinetics of tasipidimine metabolism by rhCYP2D6 was studied by incubating the test compound at 0.16, 0.41, 1, 2.6, 6.4, 16, 40 and 100 μM concentrations containing 10 pmol/ml of the CYP enzyme for 0, 5, 10, 20, and 30 min. Enzyme kinetics was estimated from CLint values measured for the test compound at different concentrations while metabolite characterisation was not performed.
The analysis for disappearance of tasipimidine and the identification of the formed metabolites were carried out by using a high-resolution liquid chromatographic-mass spectrometer supported by accurate masses (UPLC-HRMS). […]

[4] = dogs, triggered by noise or owner departure; cited from earlier work
[5] = Paroxetine co-treatment crossover PK study in healthy subjects; format: in vivo, human; details: 10 μg oral, mean, n = 5; for AUC(0-inf) / Cmax / half-life: human, plasma; for half-life: read-out: t½ (converted)
Procedure: Effect of co-treatment with a strong CYP2D6 inhibitor paroxetine on the PK of tasipimidine was studied. The study was an open label, crossover study with 5 healthy female and/or male subjects aged 26-51 years. The study started with a 8 days long once daily treatment of paroxetine 20 mg tablet. On the last day of paroxetine treatment, a single 10 μg dose of tasipimidine as oral solution was administered 1 h after the paroxetine intake after an overnight fast.
as §2
Frequent blood samples were taken through an intravenous cannula for the assessment of the concentration of tasipimidine and its metabolite 1 in plasma. The sampling times were before (0 h) and 20 min, 40 min, 1, 1.5, 2, 2.5, 3, 3.5, 4, 5, 6, 8, 12, 24, 36, and 48 hours after the study treatment administration. The PK parameters were calculated from the plasma concentration-time data by noncompartmental method using the commercial Phoenix WinNonlin software version 8.3.

[6] = Caco-2 permeability (PBPK input parameter); format: in vitro ADME; details: human, input parameter of the PBPK model
Text: as §1

CYP2D6 [7] = biological target: T2, CYP2D6; assay: CYP2D6 kinetic parameters (PBPK input parameters); format: in vitro ADME; details: input parameter of the PBPK model
Text: as §1

[8] = with paroxetine 20 mg once daily for 8 days

T2 sequence (P10635 whole entry): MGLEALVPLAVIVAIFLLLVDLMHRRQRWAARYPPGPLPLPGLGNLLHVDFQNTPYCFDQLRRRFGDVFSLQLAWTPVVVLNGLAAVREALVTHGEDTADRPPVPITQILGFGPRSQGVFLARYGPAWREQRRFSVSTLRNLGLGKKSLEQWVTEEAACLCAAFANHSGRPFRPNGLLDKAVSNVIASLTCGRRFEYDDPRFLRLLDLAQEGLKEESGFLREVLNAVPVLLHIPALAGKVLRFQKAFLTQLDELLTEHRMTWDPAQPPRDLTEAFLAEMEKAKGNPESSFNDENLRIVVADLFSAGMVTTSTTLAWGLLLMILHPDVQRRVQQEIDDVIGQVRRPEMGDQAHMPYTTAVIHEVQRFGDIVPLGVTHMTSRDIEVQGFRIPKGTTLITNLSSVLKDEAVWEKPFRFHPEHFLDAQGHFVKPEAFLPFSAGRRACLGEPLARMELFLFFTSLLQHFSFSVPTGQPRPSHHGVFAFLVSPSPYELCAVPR
T1 sequence (P33261 whole entry): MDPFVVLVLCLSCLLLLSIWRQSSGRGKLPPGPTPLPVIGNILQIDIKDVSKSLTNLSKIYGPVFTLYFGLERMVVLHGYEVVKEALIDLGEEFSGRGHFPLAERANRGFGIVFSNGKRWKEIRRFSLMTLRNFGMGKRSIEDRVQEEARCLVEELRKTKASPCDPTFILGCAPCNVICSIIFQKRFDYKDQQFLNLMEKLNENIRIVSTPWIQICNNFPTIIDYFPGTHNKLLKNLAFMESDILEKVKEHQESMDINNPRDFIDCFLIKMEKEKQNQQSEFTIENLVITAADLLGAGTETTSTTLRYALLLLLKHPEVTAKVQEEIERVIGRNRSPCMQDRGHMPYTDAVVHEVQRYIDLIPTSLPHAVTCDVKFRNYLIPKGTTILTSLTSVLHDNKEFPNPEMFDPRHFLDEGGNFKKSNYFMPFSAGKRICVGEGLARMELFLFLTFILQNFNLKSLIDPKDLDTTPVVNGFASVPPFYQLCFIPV

COc1cccc2c1CCOC2C1=NCCN1 (stereo not drawn) [tasipimidine, 2-(5-methoxyisochroman-1-yl)-4,5-dihydro-1H-imidazole]
logP [1]: 1.66 | pKa [1]: 9.24 | AUC(0-inf) ([2]; 10 ug, 10 μg single oral dose, corrected by CYP2D6 genotype based activity score, n = 6, read-out: AUCinf * AS): 0.09 ng·h/mL | AUC(0-inf) ([2]; 10 ug, 10 μg single oral solution dose, n = 6, healthy subjects, read-out: AUCinf): 0.052 ng·h/mL | AUC(0-inf) ([2]; 25 ug, 25 μg single oral dose, corrected by CYP2D6 genotype based activity score, n = 6, read-out: AUCinf * AS): 0.254 ng·h/mL | AUC(0-inf) ([2]; 25 ug, 25 μg single oral solution dose, n = 6, healthy subjects, read-out: AUCinf): 0.186 ng·h/mL | AUC(0-inf) ([2]; 50 ug, 50 μg single oral dose, corrected by CYP2D6 genotype based activity score, n = 6, read-out: AUCinf * AS): 0.475 ng·h/mL | AUC(0-inf) ([2]; 50 ug, 50 μg single oral solution dose, n = 6, healthy subjects, read-out: AUCinf): 0.36 ng·h/mL | AUC(0-inf) ([2]; 100 ug, 100 μg single oral dose, corrected by CYP2D6 genotype based activity score, n = 6, read-out: AUCinf * AS): 1.03 ng·h/mL | AUC(0-inf) ([2]; 100 ug, 100 μg single oral solution dose, n = 6, healthy subjects, read-out: AUCinf): 1.03 ng·h/mL | AUC(0-inf) ([2]; 150 ug, 150 μg single oral dose, corrected by CYP2D6 genotype based activity score, n = 6, read-out: AUCinf * AS): 2.03 ng·h/mL | AUC(0-inf) ([2]; 150 ug, 150 μg single oral solution dose, n = 6, healthy subjects, read-out: AUCinf): 1.74 ng·h/mL | contribution of enzyme to tasipimidine metabolism (CYP2C19): minor contributors | contribution of enzyme to tasipimidine metabolism (CYP2D6 [3]; CYP2D6, human in vitro systems): major enzyme | intrinsic clearance (CLint) (CYP2D6 [3]; tasipimidine 1 μM in rhCYP2D6): 1.75 μl/min/pmol CYP | relief of situational anxiety and fear [4]: effective in relieving situational anxiety and fear | AUCinf ratio with/without paroxetine [5]: 3.1 | Cmax ratio with/without paroxetine [5]: 1.9 | t½ ratio with/without paroxetine [5]: 1.7 | AUC(0-inf) ([5]; 10 ug, without paroxetine): 0.106 ng·h/mL | Cmax ([5]; 10 ug, without paroxetine): 0.026 ng/mL | half-life ([5]; 10 ug, without paroxetine): 2.6 h | AUC(0-inf) [5, 8]: 0.281 ng·h/mL | Cmax [5, 8]: 0.047 ng/mL | half-life [5, 8]: 4.3 h | Papp [6]: 15.4 ×10⁻⁶ cm/s | Vmax for CYP2D6 (CYP2D6 [7]): 0.000043 mg/s
